A short description of data set [1]: Molar enthalpy of transition or fusion.

Numbers after ± are expanded uncertainties.

For the molecule `Brc1cc(Br)cc(Br)c1` [1,3,5-tribromobenzene], in data set [1] (Crystal), the “Molar enthalpy of transition or fusion” value stood at 5.191 ± 0.0122 kcal/mol. Besides, where the note is “Crystal”, the Triple point temperature came to 394.96 ± 0.16 K.

As for `Clc1ccc(Cl)cc1` [1,4-dichlorobenzene], the entries for the “Molar enthalpy of transition or fusion” value in data set [1] (Crystal 1), in data set [1] (Crystal 2) and in data set [1] (Crystal 3) were 4.28 ± 0.0153 kcal/mol, 0.0433 ± 0.0122 kcal/mol and 0.296 ± 0.0122 kcal/mol, respectively. Further, the Triple point temperature is recorded as 326.24 ± 0.09 K (Crystal 1), 306 ± 2 K (Crystal 2) and 275 ± 0.4 K (Crystal 3).

With `Clc1cc(Cl)cc(Cl)c1` [1,3,5-trichlorobenzene], the “Molar enthalpy of transition or fusion” value in data set [1] (Crystal) is 4.196 ± 0.0215 kcal/mol. Also, under “Crystal”, the Triple point temperature came out at 335.92 ± 0.09 K.

Turning to `Brc1ccc(Br)cc1` [1,4-dibromobenzene], the “Molar enthalpy of transition or fusion” value in data set [1] (Crystal) amounted to 4.873 ± 0.0158 kcal/mol. Moreover, the Triple point temperature (Crystal) is on record as 360.48 ± 0.09 K.
